{"source": "patent US8071654B2", "about": "“Inhibitors of thromboxane formation and action” (priority 2000, dated 2011)", "target": "T1, COX-1 (Ovis aries, UniProt P05979)", "T1 construct": "purchased Cayman Chemicals", "T1 sequence (P05979 25-600)": "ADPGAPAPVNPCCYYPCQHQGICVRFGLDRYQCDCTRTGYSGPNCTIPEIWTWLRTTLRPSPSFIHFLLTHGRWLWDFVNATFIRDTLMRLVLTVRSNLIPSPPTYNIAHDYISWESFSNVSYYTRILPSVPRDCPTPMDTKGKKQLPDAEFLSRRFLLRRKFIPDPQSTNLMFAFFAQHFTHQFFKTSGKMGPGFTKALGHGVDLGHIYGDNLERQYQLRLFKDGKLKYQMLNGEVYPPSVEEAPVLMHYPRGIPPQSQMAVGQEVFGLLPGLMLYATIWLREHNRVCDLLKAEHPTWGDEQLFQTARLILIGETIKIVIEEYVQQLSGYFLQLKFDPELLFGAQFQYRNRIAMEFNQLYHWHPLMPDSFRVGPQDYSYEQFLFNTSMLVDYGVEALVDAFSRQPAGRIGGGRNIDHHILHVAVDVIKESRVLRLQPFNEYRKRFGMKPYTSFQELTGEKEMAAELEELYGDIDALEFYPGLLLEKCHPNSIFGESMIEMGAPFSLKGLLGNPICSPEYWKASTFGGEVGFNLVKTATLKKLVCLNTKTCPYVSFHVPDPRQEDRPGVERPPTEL", "experiment": "COX-1 activity, 14C-arachidonic acid conversion, TLC", "assay_type": "biochemical", "details": "for COX-1 enzyme activity (% of control values, mean ± SD): n = 3", "description": "COX-1 and COX-2 enzyme preparations were purchased from Cayman Chemicals. Preliminary studies established that 40 U of COX-1 or COX-2 could convert about 70% of ^14C-arachidonic acid (spec. act. 55 mCi/mmol, Ontario Isotopes, Ontario, Canada; 100,000 cpm were diluted with 0.5 μg unlabeled arachidonic acid (Cayman Chemicals)/1 ml assay) into products in vitro. Different amounts of PBT-3 (10 μg and 20 μg) were added and the conversion of AA into products was assessed during a 10 min reaction in 1 ml phosphate buffer at 37°. After extraction, products were assessed by TLC (silica gel G, ethyl acetate/acetic acid, 99/1, v/v). After development, the TLC plates were scanned for radioactive products with a Berthold TLC radiochromatogram scanner and the radioactivity was quantified by scraping zones of silica gel, placing in scintillation vials, elution with 1 ml methanol and addition of scintillation medium. Radioactivity was determined by conventional counting in a beta scintillation counter."}
{"molecule": "CCCCC/C=C\\CC1CC1[C@@H](O)/C=C\\C/C=C\\CCCC(=O)OC", "note": "(stereo partly drawn) [PBT-3, 10(S)-hydroxy-11,12-cyclopropyl-eicosa-5Z,8Z,14Z-trienoic acid methyl ester]", "values": [{"measurement": "COX-1 enzyme activity (% of control values, mean ± SD)", "setting": "PBT-3 3.00 μM", "result": "119.6 ± 14^NS % of control"}, {"measurement": "COX-1 enzyme activity (% of control values, mean ± SD)", "setting": "PBT-3 30.0 μM", "result": "116.8 ± 11^NS % of control"}, {"measurement": "inhibition of COX-1, in words", "setting": "relatively large amounts of PBT-3, about 3-4 log doses greater than required to inhibit the TP receptor", "result": "Neither COX-1, COX-2,12-LOX nor Plase A2 was inhibited"}]}
